Experimental data as given in US10167258B2, “Inhibitors of mitochondrial pyruvate dehydrogenase kinase isoforms 1-4 and uses thereof” (The Board of Regents of the University of Texas System, priority 2013, dated 2019).
Like-named read-outs stand apart in the source and are kept apart here.

How the values were obtained:
[1] = test system: phosphorylated E1α subunit; assay: Western blotting of phosphorylated E1α subunit in tissues of DIO mice; type: in vivo; details: single dose 70 mg/kg IP, 10 h
Method: Six- to eight-week old C57BL/6J male mice were obtained from the local campus breeding colony at UT Southwestern Medical Center (Dallas, Tex.) and randomized into two groups: vehicle- and PS10-treated. Prior to the treatment, mice were fed with a 60% high-fat diet, which contained 32% saturated and 68% unsaturated fat (catalog number: D12492, Research Diet Inc. New Brunswick, N.J.), for eight to ten weeks to produce DIO animals. PS-10 was dissolved in 100% DMSO and then diluted to make a 10% DMSO aqueous solution containing 17.5% (w/v) (2-hydroxypropyl)-β-cyclodextrin for delivery. Animals were dosed at mid-day by intraperitoneal (IP) injections at 70 mg/kg using 1-ml syringe and 30-gauge needle. The length of the treatment is indicted in each experiment. At 10 h after the last injection, animals were euthanized using carbon dioxide asphyxiation followed by cervical dislocation and dissection. Blood was harvested by cardiac puncture and stored on ice. Acidified citrate dextrose (ACD) was used as an anticoagulant. Immediately after blood collection, heart, liver, kidneys and both hind-leg quadriceps muscles were removed and snap frozen in liquid nitrogen. Average ischemia time before organ harvest was about 2 to 3 min. Blood was centrifuged in an Eppendorf 5415R refrigerated microcentrifuge at 9,300×g for 5 min to isolate plasma, which was subsequently stored at −80° C. […]

PDP1 = biological target: T1, PDP1 (Homo sapiens, UniProt Q9P0J1); assay: PDP1 activity in vitro; type: biochemical; details: at up to 1 mM
T1 sequence (Q9P0J1 72-537): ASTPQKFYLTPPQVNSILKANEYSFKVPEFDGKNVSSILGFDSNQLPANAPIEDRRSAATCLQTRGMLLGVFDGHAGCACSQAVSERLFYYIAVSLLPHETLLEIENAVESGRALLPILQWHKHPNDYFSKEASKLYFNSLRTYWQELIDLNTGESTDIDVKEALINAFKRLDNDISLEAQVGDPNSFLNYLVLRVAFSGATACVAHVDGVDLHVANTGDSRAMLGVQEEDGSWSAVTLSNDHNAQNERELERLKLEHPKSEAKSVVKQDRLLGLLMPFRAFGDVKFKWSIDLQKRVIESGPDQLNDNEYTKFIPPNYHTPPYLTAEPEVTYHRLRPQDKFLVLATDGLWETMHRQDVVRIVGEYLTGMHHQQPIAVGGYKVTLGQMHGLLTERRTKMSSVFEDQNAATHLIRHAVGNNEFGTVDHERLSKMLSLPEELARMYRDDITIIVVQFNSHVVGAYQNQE

DIO mice [2] = assay: Blood biochemistry of DIO mice (lactate, cholesterol, triglycerides); type: in vivo; details: 70 mg/kg/day
Method: Six- to eight-week old C57BL/6J male mice were obtained from the local campus breeding colony at UT Southwestern Medical Center (Dallas, Tex.) and randomized into two groups: vehicle- and PS10-treated. Prior to the treatment, mice were fed with a 60% high-fat diet, which contained 32% saturated and 68% unsaturated fat (catalog number: D12492, Research Diet Inc. New Brunswick, N.J.), for eight to ten weeks to produce DIO animals. PS-10 was dissolved in 100% DMSO and then diluted to make a 10% DMSO aqueous solution containing 17.5% (w/v) (2-hydroxypropyl)-β-cyclodextrin for delivery. Animals were dosed at mid-day by intraperitoneal (IP) injections at 70 mg/kg using 1-ml syringe and 30-gauge needle. The length of the treatment is indicted in each experiment. At 10 h after the last injection, animals were euthanized using carbon dioxide asphyxiation followed by cervical dislocation and dissection. Blood was harvested by cardiac puncture and stored on ice. Acidified citrate dextrose (ACD) was used as an anticoagulant. Immediately after blood collection, heart, liver, kidneys and both hind-leg quadriceps muscles were removed and snap frozen in liquid nitrogen. Average ischemia time before organ harvest was about 2 to 3 min. Blood was centrifuged in an Eppendorf 5415R refrigerated microcentrifuge at 9,300×g for 5 min to isolate plasma, which was subsequently stored at −80° C.
Glucose levels were determined with Sigma Diagnostics Glucose (Sigma Aldrich, St. Louis, Mo.). The levels of lactate, cholesterol, and triglyceride were measured by Vitros 250 blood chemistry analyzer (Johnson & Johnson Inc.) in the Metabolic Phenotyping Core in UT Southwestern Medical Center.

DIO mice [3] = assay: Histochemistry of the liver (Oil Red O) of DIO mice; type: in vivo; details: 70 mg/kg/day
Method: Histological examination of the liver was performed in the institutional Immunohistochemistry Laboratory. Liver tissue was dissected, grossly trim then fixed by immersion for 48 hrs in 4% Formalin/PBS (4% […], 137 mM NaCl, 2.7 mM KCl and 10 mM phosphate buffer, pH 7.5) at 4° C. Liver samples were then transferred to 10% (w/v) sucrose in PBS and incubate at 4° C. for 24 hrs. Tissues were incubated in 18% sucrose in PBS at 4° C. for 24 hours. Finally, samples were transferred to a fresh 18% sucrose solution and embedded in OCT (Optimal cutting temperature compound), cryo-sectioned and stained with Oil Red O.

PDK4 = PDK4 (Homo sapiens, UniProt Q16654); assay: Assay for inhibition of PDK activity, PDK4; type: biochemical; set-up: made in house
Method: Recombinant human PDK2 was expressed and purified as a N terminal His6-tagged SUMO fusion protein with a tobacco-etch-virus protease (TEV) cleavage site in front of the N-terminal PDK2 sequence (26), and was used directly for the activity assay and binding affinity analyses. […] The purified protein was concentrated to 35-40 mg/ml and stored at −80° C. in small aliquots. Recombinant human PDK1, PDK3 and PDK4 were expressed and purified as described previously (26).
The remaining steps were described previously (26). IC50 values were obtained by the curve fitting of inhibition isotherms using Prism 6 (GraphPad software, Inc.).

Chain of PDK4 (Q16654 whole entry, the tested form may be a part): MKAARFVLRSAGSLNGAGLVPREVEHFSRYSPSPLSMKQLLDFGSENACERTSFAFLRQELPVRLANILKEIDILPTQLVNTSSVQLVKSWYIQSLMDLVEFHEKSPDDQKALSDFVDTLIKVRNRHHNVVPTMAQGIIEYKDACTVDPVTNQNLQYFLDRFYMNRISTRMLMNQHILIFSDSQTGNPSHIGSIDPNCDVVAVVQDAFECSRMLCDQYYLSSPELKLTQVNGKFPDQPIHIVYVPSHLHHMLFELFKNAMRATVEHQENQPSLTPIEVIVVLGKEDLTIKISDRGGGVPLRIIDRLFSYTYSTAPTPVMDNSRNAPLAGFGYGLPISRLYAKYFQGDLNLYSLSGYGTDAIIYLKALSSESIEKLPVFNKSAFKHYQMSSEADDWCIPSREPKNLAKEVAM

O=S(=O)(c1ccc(O)cc1O)N1Cc2cc(O)cc(O)c2C1 [PS10, 2-((2,4-dihydroxyphenyl)sulfonyl)isoindoline-4,6-diol]
amounts of the phosphorylated E1α subunit in heart and liver vs vehicle-treated [1]: significantly decreased | effect on PDP1 activity in vitro (PDP1): without effect | plasma cholesterol vs vehicle-treated (DIO mice [2]): significantly lower | plasma lactate vs vehicle-treated (DIO mice [2]): significantly lower | plasma triglycerides vs vehicle-treated (DIO mice [2]): significantly lower | fat in the liver, Oil Red O stain (DIO mice [3]): larger amounts of fat were present in the liver of the vehicle-treated DIO mice compared with PS10-treated | IC50 (PDK4; Table 1, inhibitor 31.6 nM to 1 mM, read-out: IC50, μM for PDK4): 0.76 µM | IC50 (PDK4; absence of E2/E3BP core (−), read-out: IC50 for PDK4): 0.77 µM
